Here are results for 4 compounds from patent US4656173A, “Antipsychotic benzisothiazole S-oxide compound” (Bristol-Myers Company, priority 1985, dated 1987).

For series [1] the following is noted: Kwan and Heimlich, Internat. J. of Pharmaceutics, 6, (1980) 237-241, cited for biotransformations; cited from earlier work.
Series [2] is described as follows: Antipsychotic activity testing of dioxide (II). As to conditions: in vivo.
A short description of another series: Catalepsy (induction). Format: in vivo. Conditions: rat, in vivo; oral; rats; read-out: oral ED50 in inducing catalepsy. From the text: (§1) 3. Catalepsy--drug-induced catalepsy in rats is predictive of potential extrapyramidal symptoms (EPS) in man. cf: Costall, et al, Psychopharmacologia, 34, 233-241 (1974); Berkson, J. Amer. Statist. Assoc., 48, 565-599 (1953).

In series [3] the test system is drug-induced catalepsy in rats. In words: Catalepsy (induction). Format: in vivo. Conditions: oral.
Source text: as §1

Series [4] in a line: Blood plasma concentration after dosing of rats. As to conditions: 30 minutes after dosing. It counts as in vivo. From the text:
In this regard, compound I represents an antipsychotic agent giving an improved neuropharmacological profile compared with BMY 13859.

A short description of series [5]: Metabolic interconversion in rats. Format: in vivo. The source says:
(§2) Currently, there is insufficient information available to confirm that compound I is a metabolite of BMY 13859. […] Such interconversions have been previously reported, as for sulindac, supra.

For series [6], the system named is avoidance response to electrical shock in trained fasted rats. In words: Conditioned Avoidance Response (CAR). It counts as in vivo. The source says: 1. Conditioned Avoidance Response (CAR)--measure of a drug's tranquilizing activity as determined by its attenuation of avoidance response to electrical shock in trained fasted rats. cf: Albert, Pharmacologist, 4, 152 (1962); Wu, et al, J. Med. Chem., 12, 876-881 (1969).

The target in series [7] is α-adrenergic (α1) receptor binding site. In words: In vitro receptor binding, α-adrenergic (α1). As to conditions: predictive correlate: postural hypotension, palpitations.
Series [8] concerns the target Serotoninergic (S2) receptor binding site (Homo sapiens, UniProt P28223). In words: In vitro receptor binding, serotoninergic (S2). As to conditions: predictive correlate: lack of EPS (?).
Series [9] has as its target Dopaminergic (D2) receptor binding site (Homo sapiens, UniProt P14416). In words: In vitro receptor binding, dopaminergic (D2). As to conditions: predictive correlate: antipsychotic efficacy, EPS liability.
The test system of series [10] is apomorphine-induced stereotypy (dopaminergic activity in rats). In words: Inhibition of Apomorphine-Induced (APO) Stereotypy. Format: in vivo. The source says: 2. Inhibition of Apomorphine-Induced (APO) Stereotypy --an assessment of blockade of dopaminergic activity in rats as measured by attenuation of the behavioral syndrome caused by the dopamine agonist, apomorphine. cf: Janssen, et al., Arzneimittel. Forsch., 17, 841 (1966).

The target of series [11] is Muscarinic receptor binding site. In words: In vitro receptor binding, muscarinic. Conditions: predictive correlate: dry mouth, constipation.
The nature of series [12]: Metabolic interconversion in humans. It counts as in vivo. Conditions: high pressure liquid chromatography.
Source text: as §2

Sequence of Dopaminergic (D2) receptor binding site (P14416 whole entry): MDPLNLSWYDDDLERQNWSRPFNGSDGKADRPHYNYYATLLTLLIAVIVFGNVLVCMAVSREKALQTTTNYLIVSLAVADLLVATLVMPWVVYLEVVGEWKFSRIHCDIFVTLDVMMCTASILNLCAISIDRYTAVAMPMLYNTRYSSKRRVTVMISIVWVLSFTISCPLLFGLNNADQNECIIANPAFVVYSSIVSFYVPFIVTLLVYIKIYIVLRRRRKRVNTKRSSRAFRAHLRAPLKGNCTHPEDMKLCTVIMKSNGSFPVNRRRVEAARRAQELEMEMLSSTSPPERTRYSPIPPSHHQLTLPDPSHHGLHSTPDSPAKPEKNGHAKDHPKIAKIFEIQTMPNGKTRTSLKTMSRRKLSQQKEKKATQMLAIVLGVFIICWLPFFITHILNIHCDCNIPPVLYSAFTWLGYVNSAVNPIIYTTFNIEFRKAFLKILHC
Sequence of Serotoninergic (S2) receptor binding site (P28223 whole entry): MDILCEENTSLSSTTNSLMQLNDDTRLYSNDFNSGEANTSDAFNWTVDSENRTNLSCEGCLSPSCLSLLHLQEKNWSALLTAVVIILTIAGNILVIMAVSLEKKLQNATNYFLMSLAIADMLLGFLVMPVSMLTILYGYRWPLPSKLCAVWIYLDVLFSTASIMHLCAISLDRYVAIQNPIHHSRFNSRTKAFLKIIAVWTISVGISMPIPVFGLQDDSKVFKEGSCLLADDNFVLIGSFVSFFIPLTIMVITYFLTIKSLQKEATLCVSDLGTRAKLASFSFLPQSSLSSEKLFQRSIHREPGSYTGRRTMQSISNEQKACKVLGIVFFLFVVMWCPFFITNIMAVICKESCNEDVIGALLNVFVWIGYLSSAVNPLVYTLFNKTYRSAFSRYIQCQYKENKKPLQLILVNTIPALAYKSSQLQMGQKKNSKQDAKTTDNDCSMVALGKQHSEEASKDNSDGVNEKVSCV

Turning to `CC1=C(CC(=O)O)c2cc(F)ccc2C1=Cc1ccc([S+](C)[O-])cc1` (stereo not shown) [sulindac], the “pharmacological activity of sulindac” value in [1] is given as “appears to reside only in the sulfide metabolite”.

Consider `O=C1CC2(CCCC2)CC(=O)N1CCCCN1CCN(C2=NS(=O)(=O)c3ccccc32)CC1` [II], for which, in [2], the antipsychotic activity result is recorded as “devoid of antipsychotic activity”.

In general, ED50 refers to the dose that gives a 50% effect, or the effect in half of the subjects. One may read the IC50 as the concentration needed to halve the response being measured. Consider `O=C1CC2(CCCC2)CC(=O)N1CCCCN1CCN(c2n[s+]([O-])c3ccccc23)CC1` (stereo not shown) [Compound I, 8-[4-[4-(1-oxo-1,2-benzisothiazol-3-yl)-1-piperazinyl]butyl]-8-azaspiro[4.5]decane-7,9-dione], for which the ED50 in “Catalepsy (induction)” is > 30 mg/kg. Also, the “activity in inducing catalepsy” value in series [3] is “inactive”. In [4], the “concentration of administered agent in blood plasma versus the other (interconverted) agent” value is reported as “several-fold higher in concentration”. In addition, the “compound formed after administration of compound I” value in [5] is given as “authentic BMY 13859 is formed in rats”. Moreover, the “activity in the CAR test” value in series [6] is listed as “potent activity”. The IC50 in [7] is 330 nM; in series [8], 300 nM; in series [9], > 1000 nM; in series [11] it was > 1000 nM. In series [10], the “activity in the APO stereotypy test” value is given as “potent activity”.

Consider `O=C1CC2(CCCC2)CC(=O)N1CCCCN1CCN(c2nsc3ccccc23)CC1` [BMY 13859, reference compound], for which the “concentration of administered agent in blood plasma versus the other (interconverted) agent” value in series [4] was “several-fold higher in concentration”. For the same compound, the “compound formed after administration of BMY 13859” value in [5] (high pressure liquid chromatography) and in series [12] was “a compound which co-elutes (high pressure liquid chromatography) with compound I is formed” throughout. In addition, the IC50 in [7] was 50 nM; in series [8], 1 nM; in [9], 10 nM; in [11], > 1000 nM.
